Key:
[1] = Solubility studies of the activators (saturated solution in isohexane or methylcyclohexane); assay type: physicochemical; settings: for Solubility limit in i-hexane (mM at 25° C.) / Solubility limit in i-hexane (wt % at 25° C.): isohexane; for Solubility limit in MeCy (mM at 25° C.): methylcyclohexane
Experimental: Solubility Studies of the Activators
Procedure for Solid Activators.
A saturated solution of each of the solid ammonium borate activators was prepared by stirring an excess of the activator with either isohexane or methylcyclohexane solvent for several hours at 25° C. The mixture was then filtered and a known volume of the filtrate was evaporated to dryness in a tared vial. The vial was then weighed to determine the mass of activator that was dissolved in the aliquot. The concentration of the saturated solution is presented in millimoles of activator per liter of solution (mM).
Procedure for Activators that Form Emulsions.
A saturated solution of the activator was prepared by slowly adding the solvent to a pre-weighed amount of the activator. The final volume was determined as the minimum amount of solvent required to convert the emulsion into a homogeneous solution. The concentration of the saturated solution is presented in millimoles of activator per liter of solution (mM). Alternatively, an emulsion of the activator was prepared by adding the solvent to an excess amount of activator. The resulting emulsion was separated from the undissolved solids by decanting the emulsion into a tared vial. Solvent was then added dropwise until the emulsion became homogeneous. The mass of the final solution was measured and then the solvent was evaporated to dryness to obtain the mass of the activator. The concentration of the saturated solution is presented in millimoles of activator per liter of solution (mM).

[2] = as above; assay type: physicochemical; settings: methylcyclohexane

SMILES | Solubility limit in i-hexane (mM at 25° C.) [1] [mM] | Solubility limit in i-hexane (wt % at 25° C.) [1] [wt %] | Solubility limit in MeCy (mM at 25° C.) [1] [mM] | Solubility limit in MeCy (wt % at 25° C.) [2] [wt %]
CCCCCCCCCCCCCCCCCC[NH+](CCCCCCCCCCCCCCCCCC)c1ccccc1C(C)C.Fc1c(F)c(F)c2c(F)c([B-](c3c(F)c(F)c4c(F)c(F)c(F)c(F)c4c3F)(c3c(F)c(F)c4c(F)c(F)c(F)c(F)c4c3F)c3c(F)c(F)c4c(F)c(F)c(F)c(F)c4c3F)c(F)c(F)c2c1F [DOdPAH-BF28, 2-isopropyl-N,N-dioctadecylbenzenaminium-BF28] | 2.9 | 1.9 | > 200 | >40
CCCCCCCCCCCCCCCCCC[NH+](CCCCCCCCCCCCCCCCCC)c1ccccc1C.Fc1c(F)c(F)c2c(F)c([B-](c3c(F)c(F)c4c(F)c(F)c(F)c(F)c4c3F)(c3c(F)c(F)c4c(F)c(F)c(F)c(F)c4c3F)c3c(F)c(F)c4c(F)c(F)c(F)c(F)c4c3F)c(F)c(F)c2c1F [DOdoTH-BF28, 2-methyl-N,N-dioctadecylbenzenaminium-BF28] | 3.0 | 0.73 | >190 | >40
CCCCCCCCCC[NH+](C)c1ccccc1.Fc1c(F)c(F)c([B-](c2c(F)c(F)c(F)c(F)c2F)(c2c(F)c(F)c(F)c(F)c2F)c2c(F)c(F)c(F)c(F)c2F)c(F)c1F [MDAH-BF20, N-decyl-N-methylanilinium-BF20] | 1.3 | 0.18 | 1.4 | 0.17
CCCCCCCCCC[NH+](C)c1ccccc1.Fc1c(F)c(F)c2c(F)c([B-](c3c(F)c(F)c4c(F)c(F)c(F)c(F)c4c3F)(c3c(F)c(F)c4c(F)c(F)c(F)c(F)c4c3F)c3c(F)c(F)c4c(F)c(F)c(F)c(F)c4c3F)c(F)c(F)c2c1F [MDAH-BF28, N-decyl-N-methylanilinium-BF28] | 0.9 | 0.12 | 1.7 | 0.21
CCCCCCCCCCCCCCCCCCc1ccc([NH+](C)C)cc1.Fc1c(F)c(F)c([B-](c2c(F)c(F)c(F)c(F)c2F)(c2c(F)c(F)c(F)c(F)c2F)c2c(F)c(F)c(F)c(F)c2F)c(F)c1F [OdDMAH-BF20, N,N-dimethyl-4-octadecylbenzenaminium-BF20] | 0.8 | 0.10 | 7.9 | 1.1
CCCCCCCCCCCCCCCCCCc1ccc([NH+](C)C)cc1.Fc1c(F)c(F)c2c(F)c([B-](c3c(F)c(F)c4c(F)c(F)c(F)c(F)c4c3F)(c3c(F)c(F)c4c(F)c(F)c(F)c(F)c4c3F)c3c(F)c(F)c4c(F)c(F)c(F)c(F)c4c3F)c(F)c(F)c2c1F [OdDMAH-BF28, N,N-dimethyl-4-octadecylbenzenaminium-BF28] | <0.1 | <0.1 | 1.9 | 0.3
